Consider one substance from patent publication US7803377B2, “Anti-DLL4 antibodies and methods using same” (Genentech, Inc., priority 2006, dated 2010).

For assay [1], the system named is non-small lung cancer H1299 cells. In words: Tumor model H1299. It is filed as in vivo, mouse. The conditions noted are these: 5 mg/kg, IP, twice weekly after establishment of the tumors. Here is the method:
(§1) Tumor models. Beige nude female mice of 8- to 10-week-old were used. To obtain subcutaneous tumors, mice were injected with 0.1 ml cell suspension containing 50% matrigel (BD Bioscience) into the right posterior flank. 5×10^6 human colon cancer HM7 cells, 10×10^6 human colon carcinoma Colo205 cells, 10×10^6 human lung carcinoma Calu6 cells, 10×10^6 human lung carcinoma MV-522 cells, 10×10^6 mouse leukemia WEHI-3 cells, 10×10^6 mouse lymphoma EL4 cells, 10×10^6 human ovarian cancer SK-OV-3 X1 cells, 10×06 mouse lung cancer LL2 cells, 10×10^6 leukemia/lymphoma EL4 cells, or 10×10^6 non-small lung cancer H1299 cells were injected into each mouse. For human melanoma MDA-MB-435 model, mice were injected into the mammary fat pad with 0.1 ml cell (5×10^6) suspension containing 50% matrigel. […] For the following tumor models, each test mouse received a subcutaneous tumor fragment (1 mm^3) implanted in the right flank: non-small lung cancer SKMES-1, human breast cancer MX-1, human colorectal cancer SW620 and human adenocarcinoma LS174T. The tumor growth was quantitated by caliper measurements. Tumor volume (mm^3) was determined by measuring the length (l) and width (w) and calculating the volume (V=lw2/2). 10 to 15 animals were included in each group. Statistical comparison of treatment groups was performed using two-tailed Student's t-test. […]

Assay [2] concerns human lung carcinoma Calu6 cells. The experiment in a line: Tumor model Calu6. It is filed as in vivo, mouse. The conditions noted are these: treatment initiated at ≧250 mm^3; 10 mg/kg i.p. twice weekly; two weeks of treatment. On the procedure:
as §1

In assay [3] the test system is human colon cancer HM7 cells. In words: Tumor model HM7. It is filed as in vivo, mouse. The note with it: treatment initiated at ≧250 mm^3; 10 mg/kg i.p. twice weekly; two weeks of treatment. Here is the method:
as §1

The test system of assay [4] is human adenocarcinoma LS174T. The experiment in a line: Tumor model LS174T. The note with it: 5 mg/kg, IP, twice weekly after establishment of the tumors. It is filed as in vivo, mouse. Here is the method:
as §1

The target in assay [5] is T1, human Delta4 (ECD5.5) (Homo sapiens, UniProt Q9NR61).
T1 construct: DLL4-His (C-terminal His-tagged human DLL4, amino acid 1-404); His (C)
T1 sequence (Q9NR61 27-404): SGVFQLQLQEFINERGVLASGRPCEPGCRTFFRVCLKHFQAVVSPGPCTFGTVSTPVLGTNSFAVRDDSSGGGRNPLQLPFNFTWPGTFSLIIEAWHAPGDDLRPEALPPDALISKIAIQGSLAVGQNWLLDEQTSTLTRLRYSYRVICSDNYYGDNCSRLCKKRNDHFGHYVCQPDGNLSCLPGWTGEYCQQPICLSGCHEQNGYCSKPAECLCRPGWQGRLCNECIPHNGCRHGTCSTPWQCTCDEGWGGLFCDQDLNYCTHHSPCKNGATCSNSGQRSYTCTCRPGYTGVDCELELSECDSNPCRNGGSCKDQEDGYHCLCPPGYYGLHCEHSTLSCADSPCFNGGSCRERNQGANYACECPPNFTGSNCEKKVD
In words: Surface plasmon resonance (BIAcore-3000) binding affinity and kinetics. The note with it: human DLL4-His; Kd calculated as koff/kon; listed as YW26.81. Here is the method: (§2) To determine the binding affinity of the anti-DLL4 Mabs, surface plasmon resonance (SRP) measurement with a BIAcore™-3000 was used (BIAcore, Inc., Piscataway, N.J.). Briefly, carboxymethylated dextran biosensor chips (CM5, BIAcore Inc.) were activated with N-ethyl-N′-(3-dimethylaminopropyl)-carbodiimide hydrochloride (EDC) and N-hydroxysuccinimide (NHS) according to the supplier's instructions. Anti-DLL4 antibody was diluted with 10 mM sodium acetate, pH 4.8, into 5 μg/ml before injection at a flow rate of 5 μl/minute to achieve approximately 500 response units (RU) of coupled antibody. Next, IM ethanolamine was injected to block unreacted groups. For kinetics measurements, two-fold serial dilutions of either human or murine DLL4-His molecules (0.7 nM to 500 nM) were injected in PBS with 0.05% Tween™ 20 at 25° C. at a flow rate of 25 μl/min. Association rates (kon) and dissociation rates (koff) were calculated using a simple one-to-one Langmuir binding model (BIAcore Evaluation Software version 3.2). The equilibrium dissociation constant (Kd) was calculated as the ratio koff/kon.

The target in assay [6] is T2, murine Delta4 (ECD5.5) (Mus musculus, UniProt Q9JI71).
T2 construct: murine Delta4 (ECD5.5); His
T2 sequence (Q9JI71 27-405 limits assumed): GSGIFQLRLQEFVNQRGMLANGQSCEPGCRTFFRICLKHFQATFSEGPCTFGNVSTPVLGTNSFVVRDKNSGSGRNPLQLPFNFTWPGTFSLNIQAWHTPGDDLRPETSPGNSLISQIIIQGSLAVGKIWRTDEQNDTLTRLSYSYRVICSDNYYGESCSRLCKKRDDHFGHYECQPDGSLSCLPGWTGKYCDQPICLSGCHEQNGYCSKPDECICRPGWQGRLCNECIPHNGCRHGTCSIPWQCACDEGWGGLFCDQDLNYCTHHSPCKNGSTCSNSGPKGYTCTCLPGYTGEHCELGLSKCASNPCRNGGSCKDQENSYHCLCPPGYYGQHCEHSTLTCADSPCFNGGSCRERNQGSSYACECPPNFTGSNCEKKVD
Described as above. The note with it: murine DLL4-His; Kd calculated as koff/kon. Here is the method: as §2

The test system of assay [7] is human lung carcinoma MV-522 cells. The experiment in a line: Tumor model MV-522. The class given is in vivo, mouse. The conditions noted are these: treatment initiated at ≧250 mm^3. On the procedure: as §1
The subject of assay [8] is human colon carcinoma Colo205 cells. The experiment in a line: Tumor model Colo205. It is filed as in vivo, mouse. Here is the method: as §1
Assay [9] relates to retinal vasculature. The experiment in a line: Mouse neonatal retina study. It is filed as in vivo. On the procedure: Mouse neonatal retina study. […] Eyes were collected on P5, and fixed with 4% PFA in PBS overnight. The dissected retinas were blocked with 10% goat serum in PBST for 3 hrs, then incubated overnight with primary antibodies. The primary cocktail included biotinylated isolectin B4 (25 μg/ml, Bandeiraea simplicifolia; Sigma), and one of the following: rabbit anti-mouse Ki67 (1:1, ready-to-use, clone Sp6, Lab Vision), or mouse Cy3-conjugated anti-alpha SMA (1:2000, Sigma-Aldrich), with 10% serum in PBLEC (1% Triton X-100, 0.1 mM CaCl2, 0.1 mM MgCl2, 0.1 mM MnCl2, in PBS pH6.8). Retinas were then washed in PBST, and incubated overnight with secondary antibody combination of Alexa Fluor® 488 streptavidin (1:200; Molecular Probes) and Cy3-anti-rabbit IgG (1:200; Jackson ImmunoResearch). After staining was completed, retinas were post fixed with 4% PFA in PBS. All overnight incubations were done at 4° C. Images of flat mounted retinas were captured by confocal fluorescence microscopy.
Early postnatal mouse retina develops a stereotypic vascular pattern in a well-defined sequence of events (Stone, J. & Dreher, Z. J Comp Neurol 255, 35-49 (1987); Gerhardt, H. et al. J Cell Biol 161, 1163-77 (2003); Fruttiger, M. Invest Opthalmol Vis Sci 43, 522-7 (2002)). […] Therefore, this hyperproliferative phenotype of retinal ECs upon DLL4 blockade in neonatal mice corroborated the in vitro findings.

Assay [10] has as its system mouse leukemia WEHI-3 cells. In words: Tumor model WEHI3. The conditions noted are these: treatment initiated at ≧250 mm^3. The class given is in vivo. Here is the method:
as §1

The target in assay [11] is DLL4 (Homo sapiens, UniProt Q9NR61). In words: Notch ligand: Notch blocking ELISA (DLL4-AP / DLL4-His binding to coated rNotch1). The conditions noted are these: purified DLL4-His, read-out: calculated IC50, blocking the binding of DLL4-His to coated rNotch1. Also noted: amino acid 1-404 of DLL4 fused to human placenta alkaline phosphatase; made in house; host or cells: 293 cells, conditioned medium (DLL4-AP).
DLL4, sequence (Q9NR61 27-404): as the sequence (Q9NR61 27-404) above
Procedure: Conditioned medium containing DLL4-AP (amino acid 1-404 of DLL4 fused to human placenta alkaline phosphatase) was used in the assay. To prepare conditioned medium, 293 cells were transiently transfected with plasmid expressing DLL4-AP with Fugen6 reagent (Roche Molecular Biochemicals). Five days posttransfection, the conditioned medium was harvested, filtered and stored at 4° C. Purified antibodies titrated from 0.15 to 25 μg/ml were preincubated for 1 hr at room temperature with DLL4-AP conditioned medium at a dilution that conferred 50% maximally achievable binding to coated rrNotch1-Fc. The antibody/DLL4-AP mixture was then added to rrNotch1-Fc coated plate for 1 hr at room temperature, after which plates were washed several times in PBS. The bound DLL4-AP was detected using 1-Step PNPP (Pierce) as substrate and OD 405 nm absorbance measurement. […] The bound His-tagged ligands was detected with mouse anti-His mAb (1 μg/ml, Roche Molecular Biochemicals), biotinylated goat-anti-mouse (Jackson ImmunoResearch) and Streptavidin-AP (Jackson ImmunoResearch).

[12] abbreviates: neonatal CD1 mice, 10 mg/kg i.p. on P1 and P3, eyes collected P5.
Where [13] appears, read: neonatal mice, 10 mg/kg i.p. on P1 and P3.

Consider “YW26.82: affinity matured anti-DLL4 monoclonal antibody; HVR-H1/H2/H3 SEQ ID NO:1, 8, 9; HVR-L1/L2/L3 SEQ ID NO:10, 11, 18”, for which the “tumor growth, single agent” value in assay [1] was “inhibited tumor growth alone”; in assay [4], “inhibited tumor growth alone”; in assay [7] it was “inhibited tumor growth”; in [10] it was “significant inhibition of tumor growth”. The tumor volume entry in assay [2] is “remained static”; in [3], “remained static”; in assay [8] (treatment initiated at ≧250 mm^3, 10 mg/kg i.p. twice weekly, two weeks of treatment), “remained static”. The dissociation constant (Kd) (usually a measure of binding affinity in units of concentration) is 0.1 nM in assay [5] and 0.09 nM in assay [6]. Moreover, the “tumor growth, combination of YW26.82 and anti-VEGF” value in assay [7] (combination with anti-VEGF) is given as “most effective”. Further, the “tumor histology: EC density and viable tumor cell content” value in [8] (anti-DLL4 Mab treated Colo205 tumors) is recorded as “high EC density was associated with low viable tumor cell content”. Further, the “Ki67 labeling in retinal ECs” value in [9] (setting [12]) is “significant increase of Ki67 labeling in ECs”. Further, in assay [9] (setting [12]), the “accumulation of ECs in neonatal retina” value is reported as “massive accumulation of ECs”. In addition, the “anti-α smooth muscle actin (ASMA) staining of retinal arteries” value in assay [9] (setting [13]) is “completely absent”. In assay [9] (setting [13]), the “pattern of radially alternating arteries and veins in retina” value is recorded as “severely disrupted”. Moreover, the IC50 (usually the point on the concentration scale where inhibition reaches its midpoint) in [11] was ~8 nM.
